Laboratory results as given in patent publication US20030083558A1, “Method of examining and diagnosing skin health” (priority 2001, published 2003).

How the values were obtained:
[1] = tested on: IgE; assay: Study 2: IgE in ISF by ELISA, effect of supplementation; type: in vivo, human
Method: (§1) The laser made four pores at each collection site.
(§2) The other skin analytes were measured in Study 2 using standard ELISA kits: MMP-1 (ELISA Cat # QIA55, Oncogene Research Products, Cambridge Mass.); Total IgE (ELISA Cat # RE59061, IBL, Hamburg, Germany distributed by KMI Diagnostics); Non Extraction IGF-1 (ELISA Cat # DSL-10-2800, Diagnostics Systems Laboratories, Webster Tex.); IL-1 RA (ELISA Cat # DRA00, R&D Systems, Minneapolis, Minn.); IL-1A (ELISA Cat # EH2IL1A, Pierce/Endogen, Rockford, Ill.).

[2] = tested on: IL-1A; assay: Study 2: IL-1A in ISF by ELISA, effect of supplementation; type: in vivo, human
Method: as §1, §2

[3] = tested on: IL-1 RA; assay: Study 2: IL-1 RA in ISF by ELISA, effect of supplementation; type: in vivo, human
Method: as §1, §2

[4] = tested on: MMP-1; assay: Study 2: MMP-1 in ISF by ELISA, effect of supplementation; type: in vivo, human
Method: as §1, §2

[5] = set-up: species or system human; details: in vivo
Description: The studies included non-smoking, female subjects of good health over the age of 35 years and under the age 55 years with skin type of III or less by the Fitzpatrick Skin classification. […] Acceptable subjects were chronologically enrolled in the study following a randomization code describing what treatment would be applied to which dorsal forearm. […] The subject applied a blinded emulsion designated by a letter to one dorsal forearm and an alternative emulsion with a different designation to the opposite arm, twice per day, for three weeks. […] ISF was extracted from the dorsal forearm, volar upper arm, and serum at one week (“Week 2”) and three weeks after dosing (“Week 4”) and two weeks after the cessation of dosing (“Week 6”).
ISF was extracted from both the treatment site (dorsal forearm) as well as an adjacent, untreated site volar upper arm) following one week of therapy and three weeks of therapy. Subjects ended treatment at this point and returned for a final extraction two weeks later.
The ISF collection period lasted between three and six hours, typically four hours.

O=C1O[C@H]([C@@H](O)CO)C(O)=C1O [Vitamin C]
Effect of vitamin C supplement on concentration of IgE in ISF [1]: significantly increased
Effect of vitamin C supplement on concentration of IL-1A in ISF [2]: significantly increased
Effect of vitamin C supplement on concentration of IL-1 RA in ISF [3]: significantly increased
Effect of vitamin C supplement on concentration of MMP-1 in ISF [4]: significantly increased
MMP-1 (log), Sun-exposed, Supplement Yes, MEAN ([4]; sun-exposed ISF): 0.64
MMP-1 (log), Sun-protected, Supplement Yes, MEAN ([4]; sun-protected ISF): 0.91
Influence of topical application on levels at an adjacent, untreated site or the serum [5]: does not influence
Level at application site two weeks after ending therapy (week six) [5]: decreased to approximate baseline values
Response of serum level to topical therapy [5]: did not respond
